Marks after values point to notes of the source that are not given here.
What was measured:
[1] = Animal body weight in the in vivo protection test (pulmonary infection in mice); settings: for Weight on day 1 / Weight on day 4 / Weight on day 5: ip
Description: (§1) 46 female CD-1 (ICR) mice, supplied by Beijing Vital River Laboratory Animal Technology Co., Ltd., body weight of 23-27 g, 7 weeks old.
The mice were weighed each day after the start of the test and body weight changes were recorded.
(§2) CFU scatter plots of lung tissue were made using Graphpad Prism mapping software. The average CFU and body weight were calculated by SPSS 19.0 software, and the differences between groups were analyzed by variance analysis.

[2] = system: Pseudomonas aeruginosa PA14; assay: Pulmonary Pseudomonas aeruginosa infection in immunosuppressive mice: lung bacterial load; type: in vivo; settings: for LOG10 of Bacterial load: lung tissue 24 h after infection, immunosuppressed CD-1 mice, ip at 2 h, 4 h, 6 h, 8 h
Description: Pseudomonas aeruginosa PA14.
as §1
46 immunosuppressive mice were formed by intraperitoneal injection of cyclophosphamide 150 mg/kg on day 1 and day 4.
Seven groups were set up, including high, medium and low dose groups of compound represented by formula (I), high and medium-dose groups of compound I-g, aztreonam group and model group; there were 6 animals in each group, the other 4 animals were subjected to pulmonary infection for 2 h, and the lung tissues were removed to count the bacterial load. See the table below for specific grouping.
Mice were injected intratracheally with 50 μL of bacterial fluid (2×10^3 CFU). Four model mice were sacrificed 2 h after infection.
2 h after infection, the mice were injected intraperitoneally once at 2 h, 4 h, 6 h and 8 h according to the groups, for a total of 4 times.
24 h after infection, the mice in each group were sacrificed by cervical dislocation, and the lung and kidney tissues were removed aseptically, then placed into sterilized homogenate tube, weighed, added with proper amount of normal saline (NS), and homogenized by a homogenizer for 1 min; the lung tissues in model group were diluted 10^4, 10^5, and 10^6-fold, the lung tissues in each administration group were diluted 10 and 100-fold, the kidney tissues in model group were diluted 10^2, 10^3, and 10^4-fold, and the lung tissues in each administration group were diluted 10-fold; the serial diluents were plated onto TSA plates with a spiral coater, and incubated overnight at 37° C. to determine CFU counts with a colony counter.
as §2
Mice were injected intraperitoneally with compounds of formula (I), compound I-g and aztreonam at 2 h, 4 h, 6 h and 8 h after infection; animals were sacrificed at 24 h, lung tissues were removed aseptically, immersed in normal saline (NS), homogenized, diluted appropriately, and then 50 μL of diluents were evenly plated onto TSA plates; the plates were incubated overnight in a 37° C. incubator to count the number of colonies, which was converted to CFU per milliliter by a dilution ratio, and logarithmic value of the bacterial load was calculated of base 10, and the mean and standard deviation were compared in each group.

Row | Compound | Weight on day 1 ([1]; 400 mg/kg day group) [g] | Weight on day 4 ([1]; 400 mg/kg day group) [g] | Weight on day 5 ([1]; 400 mg/kg day group) [g] | LOG10 of Bacterial load ([2]; total dose 400 mg/kg day) | Weight on day 1 ([1]; 60 mg/kg day group) [g] | Weight on day 4 ([1]; 60 mg/kg day group) [g] | Weight on day 5 ([1]; 60 mg/kg day group) [g] | Weight on day 1 ([1]; 120 mg/kg day group) [g] | Weight on day 4 ([1]; 120 mg/kg day group) [g] | Weight on day 5 ([1]; 120 mg/kg day group) [g] | Weight on day 1 ([1]; 200 mg/kg day group) [g] | Weight on day 4 ([1]; 200 mg/kg day group) [g] | Weight on day 5 ([1]; 200 mg/kg day group) [g] | Safety conclusion from body weight (in words) ([1]; administration group) | Elimination of the bacteria infected on the lung (in words) ([2]; at the lowest dose) | Elimination of bacterial load in lung tissue (in words) ([2]; high, middle and low-dose groups, 24 h after infection) | LOG10 of Bacterial load ([2]; total dose 60 mg/kg day) | LOG10 of Bacterial load ([2]; total dose 120 mg/kg day) | LOG10 of Bacterial load ([2]; total dose 200 mg/kg day)
1 | C[C@H]1[C@H](NC(=O)/C(=N\OC(C)(C)C(=O)O)c2csc(N)n2)C(=O)N1S(=O)(=O)O [Aztreonam, aztreonam, reference compound] | 27.16 ± 1.74 | 27.80 ± 2.37 | 28.02 ± 1.08 | 1.62 ± 2.22 |  |  |  |  |  |  |  |  |  |  |  |  |  |  | 
2 | CC1(C)[C@H](NC(=O)/C(=N\O[C@@H](COc2ccc3c(c2)CN(C(=N)N(CCCN)CCCN)C3)C(=O)O)c2csc(N)n2)C(=O)N1OS(=O)(=O)O [Compound represented by formula (I)] |  |  |  |  | 26.14 ± 1.21 | 27.76 ± 0.43 | 26.77 ± 1.02 | 26.47 ± 1.65 | 28.33 ± 1.14 | 28.01 ± 1.35 | 26.91 ± 1.03 | 28.03 ± 2.15 | 25.40 ± 2.75 | safe | completely eliminated | completely eliminated | 0** | 0** | 0**
3 | CC1(C)[C@H](NC(=O)/C(=N\O[C@@H](COc2ccc(C(=N)N[C@@H]3CCCNC3)cc2)C(=O)O)c2csc(N)n2)C(=O)N1OS(=O)(=O)O [I-g, reference compound] |  |  |  |  |  |  |  | 27.02 ± 1.12 | 28.21 ± 1.16 | 27.20 ± 0.96 | 27.25 ± 1.14 | 28.39 ± 1.60 | 26.43 ± 1.06 |  |  |  |  | 1.58 ± 2.45 | 0**

Reference: patent publication US12310948B2, “Application of monocyclic β-lactam compound in pharmacy” (SHENZHEN OPTIMUM BIOLOGICAL TECHNOLOGY CO., LTD, priority 2018, dated 2025)
